Reference: PubChem BioAssay (NCI)
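Compound exposure: 48 hours, 5 concentrations, 96-well plates. GI50: concentration for 50% inhibition of growth. Definition used: TGI = concentration required for complete inhibition of growth.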

What was measured:
Assay in all cases: NCI tumour cell line growth inhibition, 48 h
NCI/ADR-RES ovarian = system: NCI/ADR-RES ovarian
MCF7 breast = system: MCF7 breast
NCI-H522 lung = system: NCI-H522 lung
NCI-H23 lung = system: NCI-H23 lung
MALME-3M melanoma = system: MALME-3M melanoma
U251 CNS = system: U251 CNS
SNB-19 CNS = system: SNB-19 CNS
OVCAR-3 ovarian = system: OVCAR-3 ovarian

Q: With `COc1ccc(/C=C/C(=O)c2ccc(O)c(CN3CCN(c4cc5c(cc4F)c(=O)c(C(=O)O)cn5C4CC4)CC3)c2)cc1` as the compound, how does the GI50 (NCI/ADR-RES ovarian) read?
A: 4.44 µM

Q: And the TGI (NCI/ADR-RES ovarian)?
A: > 100 µM

Q: And the GI50 (MCF7 breast)?
A: 0.456 µM

Q: And the TGI (MCF7 breast)?
A: > 100 µM

Q: What about the GI50 (NCI-H522 lung) of the same compound?
A: 1.98 µM

Q: And the TGI (NCI-H522 lung)?
A: 28.7 µM

Q: And the GI50 (NCI-H23 lung)?
A: 2.33 µM

Q: And the TGI (NCI-H23 lung)?
A: > 100 µM

Q: What about the GI50 (MALME-3M melanoma) of the same compound?
A: 1.59 µM

Q: What about the TGI (MALME-3M melanoma) of the same compound?
A: 16.4 µM

Q: And the GI50 (U251 CNS)?
A: 0.387 µM

Q: And the TGI (U251 CNS)?
A: > 100 µM

Q: What about the GI50 (SNB-19 CNS) of the same compound?
A: 0.785 µM

Q: What about the TGI (SNB-19 CNS) of the same compound?
A: > 100 µM

Q: And the GI50 (OVCAR-3 ovarian)?
A: 1.97 µM

Q: And the TGI (OVCAR-3 ovarian)?
A: > 100 µM

Q: Which results are given for `COCC(O)Cn1ccnc1[N+](=O)[O-]` (stereo not given)?
A: TGI (NCI-H522 lung): > 100 µM; TGI (NCI-H23 lung): > 100 µM; TGI (MALME-3M melanoma): > 100 µM; TGI (U251 CNS): > 100 µM; TGI (SNB-19 CNS): > 100 µM; TGI (OVCAR-3 ovarian): > 100 µM

Q: What does the source list for `CN[C@H](C#Cc1c(F)ccc2c1/C(=C/c1[nH]ccc1OC)C(=O)N2)CO`?
A: GI50 (NCI/ADR-RES ovarian): 0.973 µM; TGI (NCI/ADR-RES ovarian): 6.58 µM; GI50 (MCF7 breast): 0.569 µM; TGI (MCF7 breast): 3.68 µM; GI50 (NCI-H522 lung): 0.659 µM; TGI (NCI-H522 lung): 2.45 µM; GI50 (NCI-H23 lung): 0.657 µM; TGI (NCI-H23 lung): 3.11 µM; GI50 (MALME-3M melanoma): 1.46 µM; TGI (MALME-3M melanoma): 5.06 µM; GI50 (U251 CNS): 0.323 µM; TGI (U251 CNS): 2.94 µM; GI50 (SNB-19 CNS): 1.06 µM; TGI (SNB-19 CNS): 21 µM; GI50 (OVCAR-3 ovarian): 0.869 µM; TGI (OVCAR-3 ovarian): 3.1 µM

Q: For `O=C(Nc1cccc(-n2cc(-c3ccncc3)c(-c3cc(O)cc(Cl)c3)n2)c1)Nc1ccc(Cl)c(C(F)(F)F)c1`, which GI50 (NCI/ADR-RES ovarian) is on record?
A: 3.4 µM

Q: And the TGI (NCI/ADR-RES ovarian)?
A: 23.6 µM

Q: What about the GI50 (MCF7 breast) of the same compound?
A: 2.63 µM

Q: And the TGI (MCF7 breast)?
A: 8.54 µM

Q: What about the GI50 (NCI-H522 lung) of the same compound?
A: 1.32 µM

Q: And the TGI (NCI-H522 lung)?
A: 4.48 µM

Q: And the GI50 (NCI-H23 lung)?
A: 2.58 µM

Q: And the TGI (NCI-H23 lung)?
A: 7.45 µM

Q: And the GI50 (MALME-3M melanoma)?
A: 2.37 µM

Q: And the TGI (MALME-3M melanoma)?
A: 6.25 µM

Q: What about the GI50 (U251 CNS) of the same compound?
A: 1.72 µM

Q: And the TGI (U251 CNS)?
A: 3.65 µM

Q: And the GI50 (SNB-19 CNS)?
A: 3.7 µM

Q: And the TGI (SNB-19 CNS)?
A: 16.6 µM

Q: What about the GI50 (OVCAR-3 ovarian) of the same compound?
A: 2.34 µM

Q: And the TGI (OVCAR-3 ovarian)?
A: 6.65 µM

Q: Which results are given for `CCOC(=O)c1cc2c(n1Cc1cccc(OC)c1)-c1oncc1CCC2`?
A: GI50 (NCI/ADR-RES ovarian): 0.69 µM; TGI (NCI/ADR-RES ovarian): > 21.7 µM; GI50 (MCF7 breast): 0.385 µM; TGI (MCF7 breast): > 100 µM; GI50 (NCI-H522 lung): 0.222 µM; TGI (NCI-H522 lung): 0.704 µM; GI50 (NCI-H23 lung): 8.68 µM; TGI (NCI-H23 lung): > 100 µM; GI50 (MALME-3M melanoma): 0.695 µM; TGI (MALME-3M melanoma): > 100 µM; GI50 (U251 CNS): 2.16 µM; TGI (U251 CNS): > 100 µM; GI50 (SNB-19 CNS): 25.3 µM; TGI (SNB-19 CNS): > 100 µM; GI50 (OVCAR-3 ovarian): 0.372 µM; TGI (OVCAR-3 ovarian): 4.53 µM

Q: What does the source list for `O=C(O)C1OC1(c1cccc(Cl)c1)c1ccccc1Cl` (stereo not given)?
A: TGI (NCI/ADR-RES ovarian): 47.3 µM; TGI (MCF7 breast): > 100 µM; TGI (NCI-H522 lung): 65 µM; TGI (NCI-H23 lung): 54.6 µM; TGI (MALME-3M melanoma): 49.9 µM; TGI (U251 CNS): 25.4 µM; TGI (SNB-19 CNS): > 100 µM; TGI (OVCAR-3 ovarian): 46.1 µM

Q: What does the source list for `Cc1ccc(C(CC(=O)c2ccccc2)C2C(=O)NC(=O)NC2=O)cc1` (stereo not given)?
A: GI50 (NCI/ADR-RES ovarian): > 100 µM; TGI (NCI/ADR-RES ovarian): > 100 µM; GI50 (MCF7 breast): > 100 µM; TGI (MCF7 breast): > 100 µM; GI50 (NCI-H522 lung): > 100 µM; TGI (NCI-H522 lung): > 100 µM; GI50 (NCI-H23 lung): > 100 µM; TGI (NCI-H23 lung): > 100 µM; GI50 (MALME-3M melanoma): > 100 µM; TGI (MALME-3M melanoma): > 100 µM; GI50 (U251 CNS): > 100 µM; TGI (U251 CNS): > 100 µM; GI50 (SNB-19 CNS): > 100 µM; TGI (SNB-19 CNS): > 100 µM; GI50 (OVCAR-3 ovarian): > 100 µM; TGI (OVCAR-3 ovarian): > 100 µM

Q: Which GI50 (NCI/ADR-RES ovarian) does the source give for `C[C@]12CCc3sc(NCCc4ccccc4)nc3C1=CC[C@@H]1[C@@H]2CC[C@]2(C)C(=O)CC[C@@H]12` here?
A: 2.31 µM

Q: And the TGI (NCI/ADR-RES ovarian)?
A: 7.52 µM

Q: What about the GI50 (MCF7 breast) of the same compound?
A: 2.68 µM

Q: And the TGI (MCF7 breast)?
A: > 100 µM

Q: And the GI50 (NCI-H522 lung)?
A: 1.78 µM

Q: And the TGI (NCI-H522 lung)?
A: 3.64 µM

Q: And the GI50 (NCI-H23 lung)?
A: 5.03 µM

Q: And the TGI (NCI-H23 lung)?
A: > 100 µM

Q: What about the GI50 (MALME-3M melanoma) of the same compound?
A: 2.18 µM

Q: And the TGI (MALME-3M melanoma)?
A: 6.82 µM

Q: What about the GI50 (U251 CNS) of the same compound?
A: 4.97 µM

Q: What about the TGI (U251 CNS) of the same compound?
A: > 100 µM

Q: What about the GI50 (SNB-19 CNS) of the same compound?
A: 97.5 µM

Q: What about the TGI (SNB-19 CNS) of the same compound?
A: > 100 µM

Q: And the GI50 (OVCAR-3 ovarian)?
A: 2.08 µM

Q: And the TGI (OVCAR-3 ovarian)?
A: 4.83 µM
